The kinase profiling compilation of Christmann-Franck et al. (2016)

Legend:
Assay in all cases: radiometric filter-binding kinase assay, Kinase HotSpot
MAP2K1 (human) = MAP2K1 (human) (UniProt Q02750); details: compound 0.5 µM; ATP 10 µM
CDK9 CCNK (human) = CDK9 CCNK (human) (UniProt O75909+P50750); details: compound 0.5 µM
CHEK1 (human) = CHEK1 (human) (UniProt O14757); details: compound 0.5 µM; ATP 10 µM
CSNK1G1 (human) = CSNK1G1 (human) (UniProt Q9HCP0); details: compound 0.5 µM; ATP 10 µM
CHEK2 (human) = CHEK2 (human) (UniProt O96017); details: compound 0.5 µM; ATP 10 µM
MAP4K4 (human) = MAP4K4 (human) (UniProt O95819); details: compound 0.5 µM; ATP 10 µM
PLK2 (human) = PLK2 (human) (UniProt Q9NYY3); details: compound 0.5 µM; ATP 10 µM
PLK2 (human), sequence (Q9NYY3 whole entry, looked up): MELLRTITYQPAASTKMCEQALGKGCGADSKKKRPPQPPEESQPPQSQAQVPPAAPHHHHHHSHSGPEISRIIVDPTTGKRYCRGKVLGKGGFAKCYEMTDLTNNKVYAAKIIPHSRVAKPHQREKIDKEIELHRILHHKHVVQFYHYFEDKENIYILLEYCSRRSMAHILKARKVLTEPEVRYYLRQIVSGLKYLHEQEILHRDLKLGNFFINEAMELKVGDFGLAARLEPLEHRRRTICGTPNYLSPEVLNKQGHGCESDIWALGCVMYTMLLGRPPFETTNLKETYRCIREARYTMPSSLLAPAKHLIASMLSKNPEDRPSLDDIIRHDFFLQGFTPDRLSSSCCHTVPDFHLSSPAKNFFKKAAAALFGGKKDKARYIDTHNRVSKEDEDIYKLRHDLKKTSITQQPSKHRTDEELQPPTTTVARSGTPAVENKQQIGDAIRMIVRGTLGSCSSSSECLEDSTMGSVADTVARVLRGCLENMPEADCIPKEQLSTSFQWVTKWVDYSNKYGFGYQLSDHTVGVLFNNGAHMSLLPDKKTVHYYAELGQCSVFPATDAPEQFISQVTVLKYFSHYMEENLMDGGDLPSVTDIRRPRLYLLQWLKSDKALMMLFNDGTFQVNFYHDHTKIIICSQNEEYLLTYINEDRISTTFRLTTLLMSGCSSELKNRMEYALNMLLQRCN

ABL2 (human) = ABL2 (human) (UniProt P42684); details: compound 0.5 µM; ATP 10 µM
TSSK2 (human) = TSSK2 (human) (UniProt Q96PF2); details: compound 0.5 µM; ATP 10 µM
ZAP70 (human) = ZAP70 (human) (UniProt P43403); details: compound 0.5 µM; ATP 10 µM
PRKCH (human) = PRKCH (human) (UniProt P24723); details: compound 0.5 µM; ATP 10 µM
MKNK2 (human) = MKNK2 (human) (UniProt Q9HBH9); details: compound 0.5 µM; ATP 10 µM
CDK2 CCNA2 (human) = CDK2 CCNA2 (human) (UniProt P24941+P20248); details: compound 0.5 µM
FGR (human) = FGR (human) (UniProt P09769); details: compound 0.5 µM; ATP 10 µM
BLK (human) = BLK (human) (UniProt P51451); details: compound 0.5 µM; ATP 10 µM
MLTK (human) = MLTK (human) (UniProt Q9NYL2); details: compound 0.5 µM; ATP 10 µM
SIK2 (human) = SIK2 (human) (UniProt Q9H0K1); details: compound 0.5 µM; ATP 10 µM
HIPK2 (human) = HIPK2 (human) (UniProt Q9H2X6); details: compound 0.5 µM; ATP 10 µM
LRRK2 (human) = LRRK2 (human) (UniProt Q5S007); details: compound 0.5 µM; ATP 10 µM
LRRK2 (human), sequence (Q5S007 whole entry, looked up): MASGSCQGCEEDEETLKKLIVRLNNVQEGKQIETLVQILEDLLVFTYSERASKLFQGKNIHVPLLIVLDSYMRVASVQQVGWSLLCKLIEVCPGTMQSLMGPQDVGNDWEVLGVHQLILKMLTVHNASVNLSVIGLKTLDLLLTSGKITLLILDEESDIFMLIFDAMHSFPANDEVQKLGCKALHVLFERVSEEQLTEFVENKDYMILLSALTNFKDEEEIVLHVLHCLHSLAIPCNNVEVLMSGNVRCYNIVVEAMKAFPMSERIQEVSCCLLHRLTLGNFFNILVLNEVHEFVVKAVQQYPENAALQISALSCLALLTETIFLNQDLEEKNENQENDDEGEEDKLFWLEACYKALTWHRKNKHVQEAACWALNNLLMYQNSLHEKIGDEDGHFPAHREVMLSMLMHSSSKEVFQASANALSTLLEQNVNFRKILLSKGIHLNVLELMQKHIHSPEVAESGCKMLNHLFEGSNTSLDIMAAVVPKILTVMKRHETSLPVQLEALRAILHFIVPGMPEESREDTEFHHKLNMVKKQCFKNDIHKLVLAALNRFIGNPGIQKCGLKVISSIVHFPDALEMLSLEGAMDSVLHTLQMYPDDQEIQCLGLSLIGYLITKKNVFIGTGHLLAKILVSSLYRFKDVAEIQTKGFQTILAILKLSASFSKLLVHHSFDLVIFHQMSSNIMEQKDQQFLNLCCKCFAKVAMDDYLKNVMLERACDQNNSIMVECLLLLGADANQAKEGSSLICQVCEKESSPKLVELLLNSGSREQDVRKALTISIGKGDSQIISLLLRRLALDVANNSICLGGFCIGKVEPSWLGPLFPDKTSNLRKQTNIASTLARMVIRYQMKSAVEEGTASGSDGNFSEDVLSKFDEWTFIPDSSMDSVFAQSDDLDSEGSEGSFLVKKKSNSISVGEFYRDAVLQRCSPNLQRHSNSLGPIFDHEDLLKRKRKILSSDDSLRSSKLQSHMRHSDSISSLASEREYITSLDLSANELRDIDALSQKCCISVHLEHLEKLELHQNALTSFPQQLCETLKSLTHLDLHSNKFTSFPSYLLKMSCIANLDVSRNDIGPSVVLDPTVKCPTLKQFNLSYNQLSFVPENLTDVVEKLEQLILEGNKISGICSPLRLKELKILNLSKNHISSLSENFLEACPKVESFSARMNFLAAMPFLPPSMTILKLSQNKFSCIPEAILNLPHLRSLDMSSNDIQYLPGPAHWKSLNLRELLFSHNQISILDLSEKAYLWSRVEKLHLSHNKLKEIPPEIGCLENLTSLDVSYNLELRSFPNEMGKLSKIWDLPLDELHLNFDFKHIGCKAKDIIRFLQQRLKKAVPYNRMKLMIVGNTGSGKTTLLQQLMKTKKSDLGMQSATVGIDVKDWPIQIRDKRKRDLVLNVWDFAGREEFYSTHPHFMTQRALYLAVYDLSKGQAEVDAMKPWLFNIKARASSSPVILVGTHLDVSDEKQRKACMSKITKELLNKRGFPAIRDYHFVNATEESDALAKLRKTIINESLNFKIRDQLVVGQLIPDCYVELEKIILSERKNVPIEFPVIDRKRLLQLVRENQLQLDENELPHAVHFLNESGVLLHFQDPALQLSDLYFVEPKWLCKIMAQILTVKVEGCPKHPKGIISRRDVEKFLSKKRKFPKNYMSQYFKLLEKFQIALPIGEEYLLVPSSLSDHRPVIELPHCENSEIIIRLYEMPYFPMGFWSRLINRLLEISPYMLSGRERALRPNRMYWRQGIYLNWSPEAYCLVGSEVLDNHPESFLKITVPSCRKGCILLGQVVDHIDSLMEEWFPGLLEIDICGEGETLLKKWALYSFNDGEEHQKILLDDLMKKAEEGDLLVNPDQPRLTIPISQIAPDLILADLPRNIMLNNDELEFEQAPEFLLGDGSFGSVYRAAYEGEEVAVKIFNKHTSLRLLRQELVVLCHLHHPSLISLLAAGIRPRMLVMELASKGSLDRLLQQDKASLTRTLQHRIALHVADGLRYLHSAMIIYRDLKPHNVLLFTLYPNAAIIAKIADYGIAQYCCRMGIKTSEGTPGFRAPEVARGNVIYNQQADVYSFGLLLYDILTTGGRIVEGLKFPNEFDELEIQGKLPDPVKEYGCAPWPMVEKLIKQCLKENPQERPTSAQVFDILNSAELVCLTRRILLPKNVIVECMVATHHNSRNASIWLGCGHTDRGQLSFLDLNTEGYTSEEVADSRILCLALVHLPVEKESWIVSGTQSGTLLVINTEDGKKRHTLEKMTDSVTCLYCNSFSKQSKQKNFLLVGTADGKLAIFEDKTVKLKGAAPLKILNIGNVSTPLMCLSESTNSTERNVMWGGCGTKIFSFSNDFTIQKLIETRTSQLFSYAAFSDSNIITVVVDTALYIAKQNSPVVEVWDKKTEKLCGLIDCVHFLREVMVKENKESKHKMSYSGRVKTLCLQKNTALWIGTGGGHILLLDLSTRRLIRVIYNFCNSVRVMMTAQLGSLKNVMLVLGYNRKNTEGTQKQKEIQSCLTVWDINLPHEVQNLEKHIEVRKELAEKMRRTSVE

SGK3 (human) = SGK3 (human) (UniProt Q96BR1); details: compound 0.5 µM; ATP 10 µM
CDK1 CCNB1 (human) = CDK1 CCNB1 (human) (UniProt P06493+P14635); details: compound 0.5 µM
ACVR1B (human) = ACVR1B (human) (UniProt P36896); details: compound 0.5 µM; ATP 10 µM
SRPK1 (human) = SRPK1 (human) (UniProt Q96SB4); details: compound 0.5 µM; ATP 10 µM
PLK1 (human) = PLK1 (human) (UniProt P53350); details: compound 0.5 µM; ATP 10 µM
PLK1 (human), sequence (P53350 whole entry, looked up): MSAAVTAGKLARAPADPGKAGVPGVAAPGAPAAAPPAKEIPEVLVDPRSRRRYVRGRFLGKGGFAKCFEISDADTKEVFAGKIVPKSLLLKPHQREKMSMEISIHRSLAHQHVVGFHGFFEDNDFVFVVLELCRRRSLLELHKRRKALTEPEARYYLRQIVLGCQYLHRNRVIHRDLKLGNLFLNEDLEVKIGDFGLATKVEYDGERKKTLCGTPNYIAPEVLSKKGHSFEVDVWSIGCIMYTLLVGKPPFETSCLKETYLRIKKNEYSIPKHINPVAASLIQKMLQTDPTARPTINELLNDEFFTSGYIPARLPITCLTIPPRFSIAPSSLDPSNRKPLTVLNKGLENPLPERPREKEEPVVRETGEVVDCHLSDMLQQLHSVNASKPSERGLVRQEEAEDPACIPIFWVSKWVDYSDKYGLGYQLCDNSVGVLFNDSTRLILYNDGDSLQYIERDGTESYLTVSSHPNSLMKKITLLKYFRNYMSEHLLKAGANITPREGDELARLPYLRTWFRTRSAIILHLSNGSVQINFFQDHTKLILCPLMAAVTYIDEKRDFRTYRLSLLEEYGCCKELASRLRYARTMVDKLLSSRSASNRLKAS

CHUK (human) = CHUK (human) (UniProt O15111); details: compound 0.5 µM; ATP 10 µM
NUAK2 (human) = NUAK2 (human) (UniProt Q9H093); details: compound 0.5 µM; ATP 10 µM
EPHA3 (human) = EPHA3 (human) (UniProt P29320); details: compound 0.5 µM; ATP 10 µM
PTK6 (human) = PTK6 (human) (UniProt Q13882); details: compound 0.5 µM; ATP 10 µM
PRKACA (human) = PRKACA (human) (UniProt P17612); details: compound 0.5 µM
CAMK2B (human) = CAMK2B (human) (UniProt Q13554); details: compound 0.5 µM; ATP 10 µM
NTRK2 (human) = NTRK2 (human) (UniProt Q16620); details: compound 0.5 µM; ATP 10 µM
GRK4 (human) = GRK4 (human) (UniProt P32298); details: compound 0.5 µM; ATP 10 µM
MARK1 (human) = MARK1 (human) (UniProt Q9P0L2); details: compound 0.5 µM; ATP 10 µM
NEK2 (human) = NEK2 (human) (UniProt P51955); details: compound 0.5 µM; ATP 10 µM
MAPK13 (human) = MAPK13 (human) (UniProt O15264); details: compound 0.5 µM; ATP 10 µM
FES (human) = FES (human) (UniProt P07332); details: compound 0.5 µM; ATP 10 µM
TYRO3 (human) = TYRO3 (human) (UniProt Q06418); details: compound 0.5 µM; ATP 10 µM
CDK4 CCND3 (human) = CDK4 CCND3 (human) (UniProt P30281+P11802); details: compound 0.5 µM
IKBKB (human) = IKBKB (human) (UniProt O14920); details: compound 0.5 µM; ATP 10 µM
PIM2 (human) = PIM2 (human) (UniProt Q9P1W9); details: compound 0.5 µM; ATP 10 µM
RPS6KA6 KD1 KD2 (human) = RPS6KA6 KD1 KD2 (human) (UniProt Q9UK32); details: compound 0.5 µM; ATP 10 µM
RPS6KA6 KD1 KD2 (human), sequence (Q9UK32 whole entry, looked up): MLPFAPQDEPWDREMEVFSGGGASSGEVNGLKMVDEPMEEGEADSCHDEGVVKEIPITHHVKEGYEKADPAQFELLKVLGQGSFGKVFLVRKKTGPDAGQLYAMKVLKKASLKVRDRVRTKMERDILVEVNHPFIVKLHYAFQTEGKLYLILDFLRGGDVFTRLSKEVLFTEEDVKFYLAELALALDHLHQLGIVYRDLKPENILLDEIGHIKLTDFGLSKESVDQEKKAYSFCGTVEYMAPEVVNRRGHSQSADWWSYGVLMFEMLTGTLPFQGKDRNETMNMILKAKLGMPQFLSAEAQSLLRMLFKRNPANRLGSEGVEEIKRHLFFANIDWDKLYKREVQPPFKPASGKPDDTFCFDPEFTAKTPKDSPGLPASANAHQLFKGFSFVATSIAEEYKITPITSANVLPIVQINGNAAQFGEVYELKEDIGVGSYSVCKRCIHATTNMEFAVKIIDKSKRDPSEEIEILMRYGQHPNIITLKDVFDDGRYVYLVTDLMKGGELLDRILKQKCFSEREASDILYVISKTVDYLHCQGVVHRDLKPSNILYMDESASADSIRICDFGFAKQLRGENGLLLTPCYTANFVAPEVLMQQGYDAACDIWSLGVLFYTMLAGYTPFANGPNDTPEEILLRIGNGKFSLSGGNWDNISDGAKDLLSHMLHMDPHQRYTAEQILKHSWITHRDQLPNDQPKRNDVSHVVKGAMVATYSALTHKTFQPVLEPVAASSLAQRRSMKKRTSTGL

RIPK2 (human) = RIPK2 (human) (UniProt O43353); details: compound 0.5 µM; ATP 10 µM

CSNK1G1 (human), sequence (Q9HCP0 whole entry, looked up): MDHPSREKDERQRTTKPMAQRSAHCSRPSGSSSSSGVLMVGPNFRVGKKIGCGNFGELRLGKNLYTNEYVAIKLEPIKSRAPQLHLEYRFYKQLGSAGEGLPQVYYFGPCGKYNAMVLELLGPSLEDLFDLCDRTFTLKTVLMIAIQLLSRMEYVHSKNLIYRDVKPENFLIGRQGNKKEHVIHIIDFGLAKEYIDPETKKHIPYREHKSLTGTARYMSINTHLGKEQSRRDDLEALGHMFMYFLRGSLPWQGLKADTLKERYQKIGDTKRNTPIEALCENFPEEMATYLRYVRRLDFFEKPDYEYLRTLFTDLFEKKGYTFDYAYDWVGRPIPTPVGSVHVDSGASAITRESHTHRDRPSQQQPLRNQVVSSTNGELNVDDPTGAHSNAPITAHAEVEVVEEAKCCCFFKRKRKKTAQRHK

N#CCCc1ccc2c(c1)-c1[nH]c3ccc([N+](=O)[O-])cc3c1CC(=O)N2
residual activity (MAP2K1 (human)): 97.1% | residual activity (CDK9 CCNK (human); ATP 10 µM): 23.7% | residual activity (CHEK1 (human)): 45.1% | residual activity (CSNK1G1 (human)): 81.6% | residual activity (CHEK2 (human)): 12.6% | residual activity (MAP4K4 (human)): 6.82% | residual activity (PLK2 (human)): 99% | residual activity (ABL2 (human)): 49.8% | residual activity (TSSK2 (human)): 78.7% | residual activity (ZAP70 (human)): 106% | residual activity (PRKCH (human)): 99.4% | residual activity (MKNK2 (human)): 87.7% | residual activity (CDK2 CCNA2 (human); ATP 10 µM): 2.93% | residual activity (FGR (human)): 31% | residual activity (BLK (human)): 78.8% | residual activity (MLTK (human)): 88.6% | residual activity (SIK2 (human)): 44.2% | residual activity (HIPK2 (human)): 106% | residual activity (LRRK2 (human)): 73.8% | residual activity (SGK3 (human)): 99.2% | residual activity (CDK1 CCNB1 (human); ATP 10 µM): 9.89% | residual activity (ACVR1B (human)): 110% | residual activity (SRPK1 (human)): 107% | residual activity (PLK1 (human)): 101% | residual activity (CHUK (human)): 105% | residual activity (NUAK2 (human)): 67.6% | residual activity (EPHA3 (human)): 93.9% | residual activity (PTK6 (human)): 94.6% | residual activity (PRKACA (human); ATP 10 µM): 87.6% | residual activity (CAMK2B (human)): 99.3% | residual activity (NTRK2 (human)): 86.4% | residual activity (GRK4 (human)): 101% | residual activity (MARK1 (human)): 67.4% | residual activity (NEK2 (human)): 92.7% | residual activity (MAPK13 (human)): 98.2% | residual activity (FES (human)): 37.9% | residual activity (TYRO3 (human)): 94.8% | residual activity (CDK4 CCND3 (human); ATP 10 µM): 25.9% | residual activity (IKBKB (human)): 96.3% | residual activity (PIM2 (human)): 104% | residual activity (RPS6KA6 KD1 KD2 (human)): 13.4% | residual activity (RIPK2 (human)): 21.5%

O=c1[nH]c2ccccc2n1C1CCN(Cc2ccc(-c3nc4cc5[nH]cnc5cc4nc3-c3ccccc3)cc2)CC1
residual activity (MAP2K1 (human)): 96.8% | residual activity (CDK9 CCNK (human)): 108% | residual activity (CHEK1 (human)): 107% | residual activity (CSNK1G1 (human)): 99.3% | residual activity (CHEK2 (human)): 100% | residual activity (MAP4K4 (human)): 99.5% | residual activity (PLK2 (human)): 95.5% | residual activity (ABL2 (human)): 96.8% | residual activity (TSSK2 (human)): 96.2% | residual activity (ZAP70 (human)): 97.3% | residual activity (PRKCH (human)): 101% | residual activity (MKNK2 (human)): 98.7% | residual activity (CDK2 CCNA2 (human)): 98% | residual activity (FGR (human)): 95.7% | residual activity (BLK (human)): 106% | residual activity (MLTK (human)): 106% | residual activity (SIK2 (human)): 114% | residual activity (HIPK2 (human)): 110% | residual activity (LRRK2 (human)): 103% | residual activity (SGK3 (human)): 108% | residual activity (CDK1 CCNB1 (human)): 85% | residual activity (ACVR1B (human)): 111% | residual activity (SRPK1 (human)): 106% | residual activity (PLK1 (human)): 109% | residual activity (CHUK (human)): 90.1% | residual activity (NUAK2 (human)): 90.4% | residual activity (EPHA3 (human)): 71.9% | residual activity (PTK6 (human)): 91.1% | residual activity (PRKACA (human)): 106% | residual activity (CAMK2B (human)): 104% | residual activity (NTRK2 (human)): 99.4% | residual activity (GRK4 (human)): 104% | residual activity (MARK1 (human)): 104% | residual activity (NEK2 (human)): 96.8% | residual activity (MAPK13 (human)): 102% | residual activity (FES (human)): 101% | residual activity (TYRO3 (human)): 103% | residual activity (CDK4 CCND3 (human)): 99.7% | residual activity (IKBKB (human)): 101% | residual activity (PIM2 (human)): 111% | residual activity (RPS6KA6 KD1 KD2 (human)): 109% | residual activity (RIPK2 (human)): 89.2%

O=C1NC(=O)c2cc(Nc3ccc(F)cc3)c(Nc3ccc(F)cc3)cc21
residual activity (MAP2K1 (human)): 103% | residual activity (CDK9 CCNK (human); ATP 10 µM): 90.8% | residual activity (CHEK1 (human)): 104% | residual activity (CSNK1G1 (human)): 96.3% | residual activity (CHEK2 (human)): 94.3% | residual activity (MAP4K4 (human)): 91.2% | residual activity (PLK2 (human)): 99.6% | residual activity (ABL2 (human)): 89.6% | residual activity (TSSK2 (human)): 97.2% | residual activity (ZAP70 (human)): 78.8% | residual activity (PRKCH (human)): 83.3% | residual activity (MKNK2 (human)): 101% | residual activity (CDK2 CCNA2 (human); ATP 10 µM): 95.3% | residual activity (FGR (human)): 96.3% | residual activity (BLK (human)): 94.3% | residual activity (MLTK (human)): 94.5% | residual activity (SIK2 (human)): 103% | residual activity (HIPK2 (human)): 96.6% | residual activity (LRRK2 (human)): 99.8% | residual activity (SGK3 (human)): 102% | residual activity (CDK1 CCNB1 (human); ATP 10 µM): 103% | residual activity (ACVR1B (human)): 94.2% | residual activity (SRPK1 (human)): 102% | residual activity (PLK1 (human)): 99.9% | residual activity (CHUK (human)): 99.2% | residual activity (NUAK2 (human)): 112% | residual activity (EPHA3 (human)): 96.6% | residual activity (PTK6 (human)): 95.1% | residual activity (PRKACA (human); ATP 10 µM): 94.5% | residual activity (CAMK2B (human)): 98.7% | residual activity (NTRK2 (human)): 91.9% | residual activity (GRK4 (human)): 103% | residual activity (MARK1 (human)): 98.9% | residual activity (NEK2 (human)): 96.3% | residual activity (MAPK13 (human)): 99.4% | residual activity (FES (human)): 99.5% | residual activity (TYRO3 (human)): 94.8% | residual activity (CDK4 CCND3 (human); ATP 10 µM): 99% | residual activity (IKBKB (human)): 95.6% | residual activity (PIM2 (human)): 98.6% | residual activity (RPS6KA6 KD1 KD2 (human)): 97.4% | residual activity (RIPK2 (human)): 95%

Cn1cc(/C=C2\C(=O)Nc3ccc(S(N)(=O)=O)cc32)c2ccccc21
residual activity (MAP2K1 (human)): 63.6% | residual activity (CDK9 CCNK (human); ATP 10 µM): 86.8% | residual activity (CHEK1 (human)): 19.5% | residual activity (CSNK1G1 (human)): 88.3% | residual activity (CHEK2 (human)): 1.3% | residual activity (MAP4K4 (human)): 22.5% | residual activity (PLK2 (human)): 104% | residual activity (ABL2 (human)): 54.2% | residual activity (TSSK2 (human)): 84% | residual activity (ZAP70 (human)): 102% | residual activity (PRKCH (human)): 102% | residual activity (MKNK2 (human)): 71.1% | residual activity (CDK2 CCNA2 (human); ATP 10 µM): 66.2% | residual activity (FGR (human)): 28.4% | residual activity (BLK (human)): 42.9% | residual activity (MLTK (human)): 95% | residual activity (SIK2 (human)): 81.4% | residual activity (HIPK2 (human)): 82.6% | residual activity (LRRK2 (human)): 9.76% | residual activity (SGK3 (human)): 94.7% | residual activity (CDK1 CCNB1 (human); ATP 10 µM): 49.6% | residual activity (ACVR1B (human)): 98.4% | residual activity (SRPK1 (human)): 69% | residual activity (PLK1 (human)): 92.1% | residual activity (CHUK (human)): 109% | residual activity (NUAK2 (human)): 102% | residual activity (EPHA3 (human)): 80.9% | residual activity (PTK6 (human)): 80.2% | residual activity (PRKACA (human); ATP 10 µM): 104% | residual activity (CAMK2B (human)): 86.5% | residual activity (NTRK2 (human)): 4.83% | residual activity (GRK4 (human)): 40.4% | residual activity (MARK1 (human)): 40.4% | residual activity (NEK2 (human)): 89.1% | residual activity (MAPK13 (human)): 105% | residual activity (FES (human)): 57.4% | residual activity (TYRO3 (human)): 90.5% | residual activity (CDK4 CCND3 (human); ATP 10 µM): 94% | residual activity (IKBKB (human)): 101% | residual activity (PIM2 (human)): 101% | residual activity (RPS6KA6 KD1 KD2 (human)): 6.55% | residual activity (RIPK2 (human)): 74.3%
